Test results published in ChEMBL document CHEMBL3994647, “Synthesis and in vitro cytotoxic evaluation of new 1H-benzo[d]imidazole derivatives of dehydroabietic acid” (Bioorg Med Chem Lett, 2017).

How the values were obtained:
SMMC-7721 [1] = assay: Cytotoxicity against human SMMC7721 cells assessed as reduction in cell viability after 48 hrs by MTT assay; type: functional, cell-based; details: SMMC-7721, 48 h
L02 = assay: Cytotoxicity against human LO2 cells assessed as reduction in cell viability after 48 hrs by MTT assay; type: cell-based; details: L02, 48 h
HepG2 = assay: Cytotoxicity against human HepG2 cells assessed as reduction in cell viability after 48 hrs by MTT assay; type: functional, cell-based; details: HepG2, 48 h
SMMC-7721 [2] = assay: Induction of apoptosis in human SMMC7721 cells assessed as live cells at 0.36 uM after 24 hrs by Annexin V-APC/7-AAD staining based flow cytometry (reference value: 81.07%); type: functional
SMMC-7721 [3] = assay: Induction of apoptosis in human SMMC7721 cells assessed as late apoptotic cells at 0.18 uM after 24 hrs by Annexin V-APC/7-AAD staining based flow cytometry (reference value: 10.72%); type: functional
SMMC-7721 [4] = assay: Induction of apoptosis in human SMMC7721 cells after 24 hrs by Annexin V-APC/7-AAD staining based flow cytometry; type: functional, cell-based
SMMC-7721 [5] = assay: Induction of apoptosis in human SMMC7721 cells assessed as late apoptotic cells at 0.36 uM after 24 hrs by Annexin V-APC/7-AAD staining based flow cytometry (reference value: 10.72%); type: functional
SMMC-7721 [6] = assay: Induction of apoptosis in human SMMC7721 cells assessed as necrotic cells at 0.36 uM after 24 hrs by Annexin V-APC/7-AAD staining based flow cytometry (reference value: 0.77%); type: functional
SMMC-7721 [7] = assay: Cell cycle arrest in human SMMC7721 cells assessed as accumulation at G0/G1 phase at 0.36 uM after 24 hrs by propidium iodide staining based flow cytometry (reference value: 72.89%); type: functional
SMMC-7721 [8] = assay: Cell cycle arrest in human SMMC7721 cells assessed as accumulation at G2/M phase after 24 hrs by propidium iodide staining based flow cytometry; type: functional
SMMC-7721 [9] = assay: Cell cycle arrest in human SMMC7721 cells assessed as accumulation at G2/M phase at 0.36 uM after 24 hrs by propidium iodide staining based flow cytometry (reference value: 3.43%); type: functional
SMMC-7721 [10] = assay: Cell cycle arrest in human SMMC7721 cells assessed as accumulation at S phase at 0.36 uM after 24 hrs by propidium iodide staining based flow cytometry (reference value: 23.68%); type: functional
SMMC-7721 [11] = assay: Cell cycle arrest in human SMMC7721 cells assessed as accumulation at G2/M phase at 0.72 uM after 24 hrs by propidium iodide staining based flow cytometry (reference value: 3.43%); type: functional
SMMC-7721 [12] = assay: Induction of apoptosis in human SMMC7721 cells assessed as early apoptotic cells at 0.36 uM after 24 hrs by Annexin V-APC/7-AAD staining based flow cytometry (reference value: 7.44%); type: functional
SMMC-7721 [13] = assay: Cell cycle arrest in human SMMC7721 cells assessed as accumulation at G2/M phase at 0.18 uM after 24 hrs by propidium iodide staining based flow cytometry (reference value: 3.43%); type: functional
SMMC-7721 [14] = assay: Cell cycle arrest in human SMMC7721 cells assessed as accumulation at S phase at 0.18 uM after 24 hrs by propidium iodide staining based flow cytometry (reference value: 23.68%); type: functional
SMMC-7721 [15] = assay: Induction of apoptosis in human SMMC7721 cells assessed as live cells at 0.72 uM after 24 hrs by Annexin V-APC/7-AAD staining based flow cytometry (reference value: 81.07%); type: functional
SMMC-7721 [16] = assay: Induction of apoptosis in human SMMC7721 cells assessed as live cells at 0.18 uM after 24 hrs by Annexin V-APC/7-AAD staining based flow cytometry (reference value: 81.07%); type: functional
SMMC-7721 [17] = assay: Cell cycle arrest in human SMMC7721 cells assessed as accumulation at G0/G1 phase at 0.18 uM after 24 hrs by propidium iodide staining based flow cytometry (reference value: 72.89%); type: functional
SMMC-7721 [18] = assay: Induction of apoptosis in human SMMC7721 cells assessed as late apoptotic cells at 0.72 uM after 24 hrs by Annexin V-APC/7-AAD staining based flow cytometry (reference value: 10.72%); type: functional
SMMC-7721 [19] = assay: Induction of apoptosis in human SMMC7721 cells assessed as necrotic cells at 0.18 uM after 24 hrs by Annexin V-APC/7-AAD staining based flow cytometry (reference value: 0.77%); type: functional
SMMC-7721 [20] = assay: Cell cycle arrest in human SMMC7721 cells assessed as accumulation at S phase at 0.72 uM after 24 hrs by propidium iodide staining based flow cytometry (reference value: 23.68%); type: functional
SMMC-7721 [21] = assay: Cell cycle arrest in human SMMC7721 cells assessed as accumulation at G0/G1 phase at 0.72 uM after 24 hrs by propidium iodide staining based flow cytometry (reference value: 72.89%); type: functional
SMMC-7721 [22] = assay: Induction of apoptosis in human SMMC7721 cells assessed as early apoptotic cells at 0.18 uM after 24 hrs by Annexin V-APC/7-AAD staining based flow cytometry (reference value: 7.44%); type: functional
SMMC-7721 [23] = assay: Induction of apoptosis in human SMMC7721 cells assessed as early apoptotic cells at 0.72 uM after 24 hrs by Annexin V-APC/7-AAD staining based flow cytometry (reference value: 7.44%); type: functional
SMMC-7721 [24] = assay: Induction of apoptosis in human SMMC7721 cells assessed as necrotic cells at 0.72 uM after 24 hrs by Annexin V-APC/7-AAD staining based flow cytometry (reference value: 0.77%); type: functional

COC(=O)[C@]1(C)CCC[C@]2(C)c3cc(Br)c4nc(N)[nH]c4c3CC[C@@H]12
IC50 (SMMC-7721 [1]): 8740 nM | IC50 (L02): > 50000 nM | IC50 (HepG2): 15300 nM

COC(=O)[C@]1(C)CCC[C@]2(C)c3cc(Br)c4nc(/N=C/c5cc(F)ccc5O)[nH]c4c3CC[C@@H]12
Activity (SMMC-7721 [2]): 59.86% | Activity (SMMC-7721 [3]): 10.44% | Activity (SMMC-7721 [4]): Dose-dependent effect | Activity (SMMC-7721 [5]): 10.21% | IC50 (SMMC-7721 [1]): 360 nM | Activity (SMMC-7721 [6]): 0.87% | Activity (SMMC-7721 [7]): 73.94% | Activity (SMMC-7721 [8]): Dose-dependent effect | Activity (SMMC-7721 [9]): 6.45% | IC50 (L02): 3890 nM | Activity (SMMC-7721 [10]): 19.61% | Activity (SMMC-7721 [11]): 10.91% | Activity (SMMC-7721 [12]): 29.05% | Activity (SMMC-7721 [13]): 5.96% | Activity (SMMC-7721 [14]): 17.11% | Activity (SMMC-7721 [15]): 7.97% | Activity (SMMC-7721 [16]): 75.91% | Activity (SMMC-7721 [17]): 76.93% | Activity (SMMC-7721 [18]): 81.27% | Activity (SMMC-7721 [19]): 0.95% | Activity (SMMC-7721 [20]): 22.69% | Activity (SMMC-7721 [21]): 66.4% | IC50 (HepG2): 610 nM | Activity (SMMC-7721 [22]): 12.71% | Activity (SMMC-7721 [23]): 9.75% | Activity (SMMC-7721 [24]): 1%

COC(=O)[C@]1(C)CCC[C@]2(C)c3cc(Br)c4nc(NCc5cc([N+](=O)[O-])ccc5O)[nH]c4c3CC[C@@H]12
IC50 (SMMC-7721 [1]): 1370 nM | IC50 (L02): 18300 nM | IC50 (HepG2): 5520 nM

COc1cc([C@@H]2c3cc4c(cc3[C@@H](O[C@@H]3O[C@@H]5CO[C@@H](C)O[C@H]5[C@H](O)[C@H]3O)[C@H]3COC(=O)[C@H]23)OCO4)cc(OC)c1O [ETOPOSIDE]
IC50 (SMMC-7721 [1]): 150 nM | IC50 (L02): 3780 nM | IC50 (HepG2): 830 nM

COC(=O)[C@]1(C)CCC[C@]2(C)c3cc(Br)c4nc(/N=C/c5cc(Cl)ccc5O)[nH]c4c3CC[C@@H]12
IC50 (SMMC-7721 [1]): 2200 nM | IC50 (L02): 6560 nM | IC50 (HepG2): 1810 nM

COC(=O)[C@]1(C)CCC[C@]2(C)c3cc(Br)c4nc(NCc5cc(Cl)cc(Cl)c5O)[nH]c4c3CC[C@@H]12
IC50 (SMMC-7721 [1]): 930 nM | IC50 (L02): 7260 nM | IC50 (HepG2): 2380 nM

CCN(CC)c1ccc(/C=N/c2nc3c(Br)cc4c(c3[nH]2)CC[C@H]2[C@](C)(C(=O)OC)CCC[C@]42C)c(O)c1
IC50 (SMMC-7721 [1]): 870 nM | IC50 (L02): 2910 nM | IC50 (HepG2): 160 nM

COC(=O)[C@]1(C)CCC[C@]2(C)c3cc(Br)c4nc(/N=C/c5cc(C)ccc5O)[nH]c4c3CC[C@@H]12
IC50 (SMMC-7721 [1]): 560 nM | IC50 (L02): 3020 nM | IC50 (HepG2): 120 nM

COC(=O)[C@]1(C)CCC[C@]2(C)c3cc(Br)c4nc(/N=C/c5cc([N+](=O)[O-])ccc5O)[nH]c4c3CC[C@@H]12
IC50 (SMMC-7721 [1]): 1280 nM | IC50 (L02): 8710 nM | IC50 (HepG2): 2400 nM

COC(=O)[C@]1(C)CCC[C@]2(C)c3cc(Br)c4nc(NCc5ccc(F)cc5O)[nH]c4c3CC[C@@H]12
IC50 (SMMC-7721 [1]): 10600 nM | IC50 (L02): 22100 nM | IC50 (HepG2): 4600 nM

COC(=O)[C@]1(C)CCC[C@]2(C)c3cc(Br)c4nc(/N=C/c5cccc(F)c5O)[nH]c4c3CC[C@@H]12
IC50 (SMMC-7721 [1]): 2000 nM | IC50 (L02): 8350 nM | IC50 (HepG2): 430 nM

COC(=O)[C@]1(C)CCC[C@]2(C)c3cc(Br)c4nc(NCc5ccc6ccccc6c5O)[nH]c4c3CC[C@@H]12
IC50 (SMMC-7721 [1]): 22400 nM | IC50 (L02): > 50000 nM | IC50 (HepG2): 21200 nM

COC(=O)[C@]1(C)CCC[C@]2(C)c3cc(Br)c4nc(/N=C/c5cc(Br)ccc5O)[nH]c4c3CC[C@@H]12
IC50 (SMMC-7721 [1]): 2840 nM | IC50 (L02): 7220 nM | IC50 (HepG2): 730 nM
